Read-outs that look alike come from different tables or passages of the source.
Legend:
[1] = tested on: HIV-1 strain RoJo; test: PBMC time-of-addition assay (RT in cell-free supernatant at 6 days); type: cell-based; settings: for increase in IC50 (loss in potency): 24 h pretreatment; for IC50: Human immunodeficiency virus 1, PBMC
Experimental: Peripheral blood monocular cells (PBMCs) were obtained from normal hepatitis and HIV-1 negative donors by ficoll hypaque gradient separation. The mononuclear cells were washed to remove residual separation media, counted, viability determined and resuspended in RPMI 1640 medium supplemented with 15 % FBS (heat inactivated), 2 mM L-glutamine, 100 U/mL penicillin, 100 μg/mL streptomycin, and 10 μg/mL gentamycin with 2 μg/mL phytohemagluttin (PHA) at 1×10^6 cells/mL. The cells were cultured for 48 to 72 h at 37° C., 5% CO2. Following incubation, cells were collected by centrifugation, washed and resuspended in RPMI 1640 supplemented with 15% FBS (heat inactivated), 2 mM L-glutamine, 100 U/mL penicillin, 100 μg/mL streptomycin, and 10 μg/mL gentamycin with 20 U/mL recombinant IL-2 (R & D Systems, Minneapolis, Minn.). IL-2 was included in the culture medium to maintain the cell division initiated by the PHA mitogenic stimulation, and promote optimal growing conditions for the PBMCs. The cultures were then maintained until use by ½ culture volume change with fresh IL-2 containing medium every 3 days.
(§1) Human peripheral blood mononuclear cells from a minimum of 2 donors, that have been blasted with PHA and IL-2, were counted, viability determined by Trypan Blue dye exclusion and mixed in equal ratios. Pooled donors were used to minimize the variability observed between individual donors which results from quantitative and qualitative differences in HIV infection and overall response to the PHA and IL-2 of primary lymphocyte populations. The cells were resuspended at 1×10^6 cells/mL in RPMI 1640 without phenol red supplemented with 15% Fetal Bovine Serum (heat inactivated), 2 mM L-glutamine, 100 U/mL penicillin, 100 μg/mL streptomycin, 10 μg/Ln gentamycin and IL-2 (20 U/mL, R&D Systems, Minneapolis, Minn.). Fifty microliters of cells were then distributed to the inner 60 wells of a 96 well round bottom microtiter culture plate in a standard format developed by the Infectious Disease Research department of Southern Research Institute. Each plate contains cell control wells (cells only), virus control wells (cells plus virus), and experimental wells (drug plus cells plus virus). Alternatively, cells were cultured in T25 cm^2 or T75 cm^2 tissue culture flasks at a starting density of 1×10^6 cells per ml. Serially diluted compounds were added to the microtiter plate or tissue culture flask followed by the appropriate pre-titered strain of HIV-1. For virus replication inhibition experiments the HIV-1 strain RoJo was used. This is a low passage presumable subtype B pediatric isolate with a syncytium inducing (SI) phenotype in MT-2 cells isolated by Southern Research Institute personnel. All samples were assayed in triplicate where possible with an accompanying determination of compound toxicity. The final volume per well in the microtiter plates was 200 μL. The final volume in the tissue culture flask varied depending upon experimental design and flask size. Assays were incubated for 6 days in a humidified atmosphere at 37° C., 5% CO2, after which supernatants were collected, for analysis of RT activity and cell viability by MTS dye reduction. Culture were also examined microscopically, any abnormalities noted, and in the case of tissue culture flasks cell counts and viability determined by Trypan Blue Dye exclusion.
Time-of-addition assays were performed with PBMCs in two ways. For both assays, PBMCs were isolated and cultured under the conditions as described above. Time-of-addition assays were carried out in either a tissue culture flask format (T-75 cm^2) or in microtiter wells. In both cases due to the lack of plastic adherence and heterogeneity of the PBMC population for susceptibility to infection, it was not possible to use complete removal of virus following a timed adsorption to synchronize the infection and limit the assay to a single round of infection. […]

[2] = tested on: PBMCs; test: PBMC cytotoxicity in time-of-addition assay; type: cell-based, Human
Text: as §1
Time-of-addition assays were performed with PBMCs in two ways. For both assays, PBMCs were isolated and cultured under the conditions as described above. Time-of-addition assays were carried out in either a tissue culture flask format (T-75 cm^2) or in microtiter wells. In both cases due to the lack of plastic adherence and heterogeneity of the PBMC population for susceptibility to infection, it was not possible to use complete removal of virus following a timed adsorption to synchronize the infection and limit the assay to a single round of infection. Therefore, serial washing by partial removal of the media was used to reduce the concentration of virus and compound (if required) in the assay. Compound addition in relationship to antiviral activity was either assessed over a short addition interval immediately before or after virus addition or for up to 72 h post infection. For all assays virus replication was assessed at 6 days of culture by determining RT expression in cell-free supernatants. In the tissue culture flask format cells were counted and Trypan Blue Dye exclusion used to monitor compound cytotoxicity. Cell viability in the 96 well microtiter plate format was determined by MTS dye reduction. AZT was used as a positive control.
At assay termination the assay plates were stained with the soluble tetrazolium-based dye MTS (CellTiter96® Reagent Promega) to determine cell viability and quantify compound toxicity. MTS is metabolized by the mitochondria enzymes of metabolically active cells to a soluble formazan product, allowing the rapid quantitative analysis cell viability and compound cytotoxicity. […] At termination of the assay 20 μL of MTS reagent was added per well and incubated for 4 h at 37° C. […]

[3] = tested on: HIV-1; test: HeLa CD4 LTR β-gal HIV-1 attachment assay; type: cell-based; settings: for IC50: Human immunodeficiency virus 1, HeLa; for β-galactosidase production versus background: cells alone+compounds, at all times
Experimental: The attachment assay was performed with the HeLa CD4 LTR , β-gal cells available from the AIDS Research and Reference Reagent Repository. […] HeLa CD4 LTR β-gal cells express cell surface CD4 and contain an LTR β-galactosidase reporter construct. Upon infection either the Tat protein incorporated into the virion or new Tat produced following virus integration and transcription trans-activates the LTR β-gal reporter, leading to expression of the β-galactosidase enzyme. HeLa CD4 LTR β-gal cells are routinely cultured with the required selection antibiotics and screened for mycoplasma contamination. Twenty-four h prior to initiation of the assay cells were trypsinized, counted and 1×10^4 cells placed in a 0.2 cm well in media without selection antibiotics. […] A known titer of virus was then added to the wells and the incubation continued for 1 h. At the end of the incubation the wells were washed 6 times with media and the culture continued for 48 h. At 48 h the wells were washed one time with PBS and β-galactosidase enzyme expression determined by chemiluminescence per manufacturers instructions (Tropix Gal-screen™, Tropix, Bedford, Mass.). Compound toxicity was monitored on sister plates using MTS dye reduction.

[4] = 4 h, −4 h pre (relative to infection)
[5] = pre-treat 0 h prior to infection
[6] = pre-treat 2 h prior to infection
[7] = pre-treat 4 h prior to infection
[8] = pre-treat 24 h prior to infection
[9] = −4 h pre (relative to infection)
[10] = Experiment 1, pretreat 4 h, read-out: IC50
[11] = Experiment 1, pretreat 24 h, read-out: IC50
[12] = Experiment 2, pretreat 4 h, read-out: IC50
[13] = Experiment 2, pretreat 24 h, read-out: IC50

| Compound | increase in IC50 (loss in potency) [1] | IC50 [1, 4] | IC50 ([1]; 6 h, 6 h post infection) | IC50 ([1]; at infection) | IC50 [1, 5] | IC50 [1, 6] | IC50 [1, 7] | IC50 [1, 8] | TC50 ([2]; 6 h post infection) | TC50 ([2]; at infection) | TC50 [2, 9] | IC50 [3, 10] | IC50 [3, 11] | IC50 [3, 12] | IC50 [3, 13] | β-galactosidase production versus background [3] | other results |
| --- | --- | --- | --- | --- | --- | --- | --- | --- | --- | --- | --- | --- | --- | --- | --- | --- | --- |
| COc1cc(C(C)(C)CCCC(C)C)cc(OC)c1OC [IG-07, 1-(1,1,5Trimethylhexyl)-3,4,5-trimethoxybenzene] | approximately 2 fold | 39.5 µM | 46.1 µM | 67 µM | 6.9 µM | 6.1 µM | 5.3 µM | 10.8 µM | >100 µM | >100 µM | >100 µM | > 50 µM | > 50 µM | > 50 µM | > 50 µM | suppressed β-galactosidase production below background | IC50 ([3]; Experiment 1, pretreat 0 h, read-out: IC50): > 50 µM; IC50 ([3]; Experiment 2, pretreat 0 h, read-out: IC50): 16 µM; transient suppression of virus replication ([3]; at lower concentrations of compounds, two independent experiments): observed consistently |
| CC(C)=CCCC1(C)CCc2c(O)cc(C(C)(C)CCCC(C)C)cc2O1 (centres unmarked) [IG-08, 3,4-Dihydro-2-methyl-2-(4-methyl-3-pentenyl)-7-(1,1,5-trimethylhexyl)-2H-1-benzopyran-5-ol] |  | 6.2 µM | 22.5 µM | 15.7 µM | 14.2 µM | 10.4 µM | 4.1 µM | 11.9 µM | >100 µM | >100 µM | >100 µM | 10.8 µM | 7.4 µM | 11 µM | 2.6 µM | suppressed β-galactosidase production below background | decrease in IC50 ([1]; 4 h pretreatment): 4-fold decrease in; IC50 ([3]; Experiment 1, pretreat 0 h): 16 µM; IC50 ([3]; Experiment 2, pretreat 0 h): 0.9 µM; Comment: suppression of β-galactosidase activity ([3]; pretreat 0 h): Suppression of μ-galactosidase; Comment: suppression of β-galactosidase activity ([3]; pretreat 4 h): Suppression of μ-galactosidase; Comment: suppression of β-galactosidase activity ([3]; pretreat 24 h): Suppression of μ-galactosidase |
| C=C(C)[C@@H]1CCC(C)=C[C@H]1c1c(O)cc(CCCCC)cc1O [Cannabidiol, reference compound] | at 4 h then a 17-fold | 12.1 µM | 12.1 µM | 13.8 µM | 0.58 µM | 5 µM | 1.5 µM | 10.5 µM | >100 µM | >100 µM | >100 µM |  |  |  |  | suppressed β-galactosidase production below background | loss of activity (potency) ([1]; 2 h pre-treatment, listed as cannabidiol): approximately 10 fold; regain of potency (decrease in IC50) ([1]; 4 h pretreatment): activity at 2, regain 3.3-fold; regain of potency (decrease in IC50) ([1]; 4 h pretreatment, listed as cannabidiol): 3.3 fold; increase in IC50 (loss in potency) ([1]; listed as cannabidiol): 17 fold |
